Measurements as given in PMC6216040, “Repurposing of an old drug: In vitro and in vivo efficacies of buparvaquone against Echinococcus multilocularis” (International Journal for Parasitology: Drugs and Drug …, 2018).
Like-named read-outs stand apart in the source and are kept apart here.

Test system: E. multilocularis metacestodes
Experiment: PGI-assay: drug-induced damage on in vitro cultured metacestodes (Pathogen Box screening cascade and EC50)
Assay type: cell-based, Echinococcus multilocularis
Settings: for PGI release, % of Tx-100 control, average, 5d / PGI release, % of Tx-100 control, average, 12d: confirmatory screening at 10 µM in triplicates, values as % of Tx-100 control; for cytotoxicity at 10 µM: Echinococcus multilocularis
[1] = 10 µM, singlets, 5 days of incubation
[2] = 10 µM, singlets, 12 days of incubation
[3] = 120 h, 10 µM, singlets, 5 days of incubation, read-out: PGI release, % of the Tx-100 control, 5d
[4] = 288 h, 10 µM, singlets, 12 days of incubation, read-out: PGI release, % of the Tx-100 control, 12d

SMILES | PGI release, % of the Tx-100 control, 5d [1] | PGI release, % of the Tx-100 control, 12d [2] | other results
c1ccc(-c2[nH]c3ccccc3c2C(c2ccccn2)N2CCCC2)cc1 (centres unmarked) [MMV688762] | 0.82% | 0.77% | –
CNc1nnc(Sc2cnn(-c3ccccc3)c(=O)c2Cl)s1 [MMV688763] | 6.98% | 14.69% | –
COc1ccc(-c2onc(C(F)(F)F)c2-c2ccc(Cl)cc2)c(O)c1 [MMV688766] | 7.61% | 28.52% | PGI release, % of Tx-100 control, average, 5d (5 days of incubation): 1.11%; PGI release, % of Tx-100 control, average, 12d (12 days of incubation): 0.26%
Cc1[nH]c2ccccc2c1C(c1cccs1)N1CCN(C)CC1 (centres unmarked) [MMV688768] | 19.18% | 27.24% | PGI release, % of Tx-100 control, average, 5d (5 days of incubation): 5.02%; PGI release, % of Tx-100 control, average, 12d (12 days of incubation): 7.48%
Cc1ccccc1C(=O)N1NC(=Nc2ccccc2)SC1(C)C [MMV688771] | -0.49% | -1.69% | –
O=C(Cn1ccnc1[N+](=O)[O-])NCc1ccccc1 [MMV688773, Benznidazole, reference compound] | – | – | cytotoxicity at 10 µM [3]: -0.2%; cytotoxicity at 10 µM [4]: 1.37%
CC[C@@H]([C@H](C)O)n1ncn(-c2ccc(N3CCN(c4ccc(OC[C@@H]5CO[C@@](Cn6cncn6)(c6ccc(F)cc6F)C5)cc4)CC3)cc2)c1=O [MMV688774, Posaconazole, reference compound] | – | – | cytotoxicity at 10 µM [3]: -0.69%; cytotoxicity at 10 µM [4]: -1.09%
Cc1cccnc1NC(=O)c1cccc(OCc2c(C)noc2C)c1 [MMV688793] | -3.90% | -0.61% | –
O=C(NCCc1ccn(-c2ccccc2)n1)C1CCCCC1 [MMV688795] | 0.14% | -0.21% | –
O=C(NCc1nnc2n1CCCCC2)c1ccc(-c2ccc(F)cc2)o1 [MMV688796] | -0.28% | -3.38% | –
CC1CCCCN1C(=O)NCCc1coc(-c2ccc(F)cc2)n1 (centres unmarked) [MMV688797] | -3.70% | -1.62% | –
CS(=O)(=O)c1ccccc1C(=O)N(Cc1ccccc1)c1ccccc1 [MMV688798] | 13.11% | 63.28% | PGI release, % of Tx-100 control, average, 5d (5 days of incubation): -0.92%; PGI release, % of Tx-100 control, average, 12d (12 days of incubation): -1.65%
COc1ccc2nccc(NC(=O)C3CCN(CCc4ccc(Cl)cc4)CC3)c2n1 [MMV688844] | -0.25% | -3.99% | –
O=C(N[C@H](Cc1ccccc1)C(=O)Nc1ccccc1N1CCOCC1)c1cccs1 [MMV688845] | 0.55% | 0.28% | –
Cc1ccccc1CN1CCC(O)(c2ccc(Cl)c(C(F)(F)F)c2)CC1 [MMV688846] | 6.92% | 5.57% | –
CC(C)(C)n1nc(Cc2ccc(F)c(Cl)c2)c2c(N)ncnc21 [MMV688852] | 6.41% | 7.25% | –
CCOc1ccc2cc(-c3nn(C(C)(C)C)c(N)c3C(N)=O)cnc2c1 [MMV688853] | -1.41% | -6.45% | –

SMILES | PGI release, % of the Tx-100 control, 5d [1] | PGI release, % of the Tx-100 control, 12d [2] | other results
CCOc1ccc2cc(-c3nn(CC4CCN(C)CC4)c4ncnc(N)c34)ccc2c1 [MMV688854] | -0.71% | 0.93% | –
CN1CCN(c2cc(-c3ccc(F)cc3)nc(-c3ccncc3)n2)CC1 [MMV688888] | -2.22% | 0.59% | –
Clc1ccc(CCNc2cc(-c3ccccc3)nc3ncnn23)cc1 [MMV688889] | -3.56% | -0.70% | –
COc1cc(Br)cc2cc(C(=O)Nc3cccc(C(F)(F)F)c3)c(=O)oc12 [MMV688891] | -4.56% | -1.74% | –
OC[C@H]1O[C@@H](n2c3ccc(Cl)cc3c3c(-c4cc5ccccc5o4)ncnc32)C(O)[C@H]1O (some centres unmarked) [MMV688921] | -1.03% | 0.48% | –
CCc1nn(C)c(C(=O)NCc2ccc(Oc3ccc(C)cc3)cc2)c1Cl [MMV688934, Tolfenpyrad] | – | – | cytotoxicity at 10 µM (120 h, read-out: PGI release, % of the Tx-100 control, 5d): -1.16%; cytotoxicity at 10 µM (288 h, read-out: PGI release, % of the Tx-100 control, 12d): 10.3%
O=C(c1ccco1)N(CCCn1ccnc1)c1nc2c(Cl)cccc2s1 [MMV688936] | -2.60% | 13.45% | –
CCOc1ccc(-c2nc(CNCCc3ccc(F)cc3)cs2)cc1 [MMV688938] | 2.65% | 3.55% | –
Cc1ccc2nc(C)c(-c3ccn(Cc4ccccc4)n3)n2c1 [MMV688939] | 15.20% | 102.25% | PGI release, % of Tx-100 control, average, 5d (5 days of incubation): 3.21%; PGI release, % of Tx-100 control, average, 12d (12 days of incubation): 3.18%
COc1cc(CN2CCC3(C=Cc4ccccc43)CC2)cc2c1OCO2 [MMV688941] | -0.50% | -0.49% | –
CC(C)(C)C(O)C(Oc1ccc(-c2ccccc2)cc1)n1cncn1 (centres unmarked) [MMV688942, Bitertanol] | – | – | cytotoxicity at 10 µM [3]: -0.93%; cytotoxicity at 10 µM [4]: 0.41%
CC1COC(Cn2cncn2)(c2ccc(Oc3ccc(Cl)cc3)cc2Cl)O1 (centres unmarked) [MMV688943, Difenoconazol] | -4.96% | -0.86% | –
Cc1cc(NC(=O)c2ccc(Oc3ccc(Cl)cc3O)o2)no1 [MMV688955] | -0.20% | -3.41% | –
CCc1cc(=O)n(C)c(SC(C)C(=O)Nc2ccc(F)cc2)n1 (centres unmarked) [MMV688980] | -0.26% | 0.88% | –
[H]/N=C(/N)N[C@H]1[C@H](O)[C@@H](O)[C@H](O[C@@H]2O[C@@H](C)[C@](O)(C=O)[C@H]2O[C@@H]2O[C@@H](CO)[C@H](O)[C@@H](O)[C@@H]2NC)[C@@H](N/C(N)=N\[H])[C@@H]1O [MMV688994, Streptomycin, reference compound] | – | – | cytotoxicity at 10 µM [3]: -0.55%; cytotoxicity at 10 µM [4]: 0.19%
Cc1ccc(S(=O)(=O)Nc2ccc(CN3CCN(C(=O)c4cccc(C#N)c4)CC3)cc2)cc1 [MMV689028] | 0.59% | -0.96% | –
